The values that follow come from patent publication US11254663B2 (BRISTOL-MYERS SQUIBB COMPANY, priority 2019, dated 2022).

FXR, sequence (Q96RI1 262-486): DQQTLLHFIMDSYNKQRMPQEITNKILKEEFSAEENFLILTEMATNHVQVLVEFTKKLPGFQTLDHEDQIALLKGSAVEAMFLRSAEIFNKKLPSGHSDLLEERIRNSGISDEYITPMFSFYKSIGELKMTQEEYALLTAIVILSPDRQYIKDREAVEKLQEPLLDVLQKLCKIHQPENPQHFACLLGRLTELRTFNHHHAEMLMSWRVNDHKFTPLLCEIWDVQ

The test concerns the target FXR (Homo sapiens (Human), UniProt Q96RI1). The test can be described thus: transient human FXR/Gal4-luciferase reporter assay. In kind it is cell-based. The conditions noted are these: Gal4-hFXR fusion construct, HEK293 reporter cells; response relative to 8 μM GW-4064. An outline of the steps: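 HEK293 cells stably carrying a 5×Gal4 response element–firefly luciferase reporter were transiently transfected overnight with a Gal4 DBD–human FXR LBD fusion plasmid. Compound was added in DMSO and cells were incubated overnight at 37 °C, 5% CO2. Activity was read as Steady-Glo luminescence.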
Background: A reporter such as luciferase makes a cellular process visible.
For orientation: EC50 means the concentration needed to bring the measured effect to its halfway point. Take `CC(C)(C#N)Oc1ccc(-c2ccnc(N(CC34CCC(c5ccc(C(C)(F)F)cn5)(CC3)CC4)C(=O)OC(C)(C)C(F)(F)F)c2)cc1` [Example 606, 1,1,1-trifluoro-2-methylpropan-2-yl (4-(4-((2-cyanopropan-2-yl)oxy)phenyl)pyridin-2-yl)((4-(5-(1,1-difluoroethyl)pyridin-2-yl)bicyclo[2.2.2]octan-1-yl)methyl)carbamate]: the response was half-maximal at 95 nM (EC50).

Take `CC(C)(O)c1ccc(-c2ccnc(N(CC34CCC(c5ccc(C(C)(F)F)cn5)(CC3)CC4)C(=O)OC(C)(C)C(F)(F)F)c2)nc1` [Example 607, 1,1,1-trifluoro-2-methylpropan-2-yl ((4-(5-(1,1-difluoroethyl)pyridin-2-yl)bicyclo[2.2.2]octan-1-yl)methyl)(5-(2-hydroxypropan-2-yl)-[2,4′-bipyridin]-2′-yl)carbamate]: a half-maximal effect (EC50) was put at 96 nM.

The molecule `CC(C)(O)c1cnc(-c2ccnc(N(CC34CCC(c5ccc(C(C)(F)F)cn5)(CC3)CC4)C(=O)OC(C)(C)C(F)(F)F)c2)nc1` [Example 608, 1,1,1-trifluoro-2-methylpropan-2-yl ((4-(5-(1,1-difluoroethyl)pyridin-2-yl)bicyclo[2.2.2]octan-1-yl)methyl)(4-(5-(2-hydroxypropan-2-yl)pyrimidin-2-yl)pyridin-2-yl) carbamate] registered an EC50 of 301 nM.

For `CC(C)(O)c1ccc(-c2ccnc(N(CC34CCC(c5noc(C(C)(F)F)n5)(CC3)CC4)C(=O)OC(C)(C)C(F)(F)F)c2)cc1` [Example 609, 1,1,1-trifluoro-2-methylpropan-2-yl((4-(5-(1,1-difluoroethyl)-1,2,4-oxadiazol-3-yl)bicyclo[2.2.2]octan-1-yl)methyl)(4-(4-(2-hydroxypropan-2-yl)phenyl)pyridin-2-yl)carbamate], the EC50 was 30 nM.

`CC(C)Oc1ccc(-c2ccnc(N(CC34CCC(c5noc(C(C)(F)F)n5)(CC3)CC4)C(=O)OC(C)(C)C(F)(F)F)c2)cc1` [Example 610, 1,1,1-trifluoro-2-methylpropan-2-yl ((4-(5-(1,1-difluoroethyl)-1,2,4-oxadiazol-3-yl)bicyclo[2.2.2]octan-1-yl)methyl)(4-(4-isopropoxyphenyl)pyridin-2-yl)carbamate] came in with an EC50 of 47 nM.

With `CC(C)(C)NC(=O)N(CC12CCC(c3noc(C(F)(F)F)n3)(CC1)CC2)c1cccc(-c2ccc(C(C)(C)O)cc2)c1` [Example 611, 3-(tert-butyl)-1-(4′-(2-hydroxypropan-2-yl)-[1,1′-biphenyl]-3-yl)-1-((4-(5-(trifluoromethyl)-1,2,4-oxadiazol-3-yl)bicyclo[2.2.2]octan-1-yl)methyl) urea], the response was half-maximal at 41 nM (EC50).

In turn, `CC(C)(C)NC(=O)N(CC12CCC(c3noc(C(F)(F)F)n3)(CC1)CC2)c1cccc(-c2ccc(OC(F)F)cc2)c1` [Example 612, 3-(tert-butyl)-1-(4′-(difluoromethoxy)-[1,1′-biphenyl]-3-yl)-1-((4-(5-(trifluoromethyl)-1,2,4-oxadiazol-3-yl)bicyclo[2.2.2]octan-1-yl)methyl)urea] displayed an EC50 of 65 nM.

With `CC(C)(C)NC(=O)N(CC12CCC(c3noc(C(F)(F)F)n3)(CC1)CC2)c1cccc(-c2ccc(C(C)(C)OC(F)F)cc2)c1` [Example 613, 3-(tert-butyl)-1-(4′-(2-(difluoromethoxy)propan-2-yl)-[1,1′-biphenyl]-3-yl)-1-((4-(5-(trifluoromethyl)-1,2,4-oxadiazol-3-yl)bicyclo[2.2.2]octan-1-yl)methyl)urea], a half-maximal response (EC50) required 79 nM.

Regarding `CC(C)(O)c1ccc(-c2cccc(N(CC34CCC(c5noc(C(F)(F)F)n5)(CC3)CC4)C(=O)NCC3CC4(CC4)C3)c2)cc1` [Example 614, 1-(4′-(2-hydroxypropan-2-yl)-[1,1′-biphenyl]-3-yl)-3-(spiro[2.3]hexan-5-ylmethyl)-1-((4-(5-(trifluoromethyl)-1,2,4-oxadiazol-3-yl)bicyclo[2.2.2]octan-1-yl)methyl)urea], the EC50 worked out at 171 nM.

Turning to `CC(F)(F)c1nc(C23CCC(CN(C(=O)OC(C)(C)C(F)(F)F)c4cc(-c5ccc(OC(F)(F)Cl)cc5)ccn4)(CC2)CC3)no1` [Example 615, 1,1,1-trifluoro-2-methylpropan-2-yl (4-(4-(chlorodifluoromethoxy)phenyl)pyridin-2-yl)((4-(5-(1,1-difluoroethyl)-1,2,4-oxadiazol-3-yl)bicyclo[2.2.2]octan-1-yl)methyl)carbamate], the EC50 stood at 473 nM.

Take `CC(C)Oc1ccc(-c2cc(N(CC34CCC(c5nc(C6CC6)no5)(CC3)CC4)C(=O)OC(C)(C)C(F)(F)F)ncc2F)cc1` [Example 617, 1,1,1-trifluoro-2-methylpropan-2-yl ((4-(3-cyclopropyl-1,2,4-oxadiazol-5-yl)bicyclo[2.2.2]octan-1-yl)methyl)(5-fluoro-4-(4-isopropoxyphenyl)pyridin-2-yl)carbamate]: the half-maximal effective concentration (EC50) was determined as 81 nM.

As to `CC(C)(O)c1ccc(-c2cc(N(CC34CCC(c5nc(C6CC6)no5)(CC3)CC4)C(=O)OC(C)(C)C(F)(F)F)ncc2F)cc1F` [Example 618, 1,1,1-trifluoro-2-methylpropan-2-yl((4-(3-cyclopropyl-1,2,4-oxadiazol-5-yl)bicyclo[2.2.2]octan-1-yl)methyl)(5-fluoro-4-(3-fluoro-4-(2-hydroxypropan-2-yl)phenyl)pyridin-2-yl) carbamate], the concentration giving a half-maximal response (EC50) came to 49 nM.

For the molecule `CC(C)(C)COC(=O)N(CC12CCC(c3noc(C(C)(F)F)n3)(CC1)CC2)c1cc(-c2ccc(C(C)(C)O)cc2)c(F)cn1` [Example 619, Neopentyl ((4-(5-(1,1-difluoroethyl)-1,2,4-oxadiazol-3-yl)bicyclo[2.2.2]octan-1-yl)methyl) (5-fluoro-4-(4-(2-hydroxypropan-2-yl)phenyl)pyridin-2-yl) carbamate], the concentration for a half-maximal effect (EC50) turned out to be 28 nM.

On to `CC(C)(O)c1ccc(-c2cc(N(CC34CCC(c5noc(C(C)(C)F)n5)(CC3)CC4)C(=O)OC(C)(C)C(F)(F)F)ncc2F)cc1` [Example 620, 1,1,1-trifluoro-2-methylpropan-2-yl(5-fluoro-4-(4-(2-hydroxypropan-2-yl)phenyl)pyridin-2-yl)((4-(5-(2-fluoropropan-2-yl)-1,2,4-oxadiazol-3-yl)bicyclo[2.2.2]octan-1-yl)methyl) carbamate], for which the EC50 was 29 nM.

`CC(C)(F)c1nc(C23CCC(CN(C(=O)OC(C)(C)C(F)(F)F)c4cc(-c5cnn(CC6COC6)c5)c(F)cn4)(CC2)CC3)no1` [Example 621, 1,1,1-trifluoro-2-methylpropan-2-yl(5-fluoro-4-(1-(oxetan-3-ylmethyl)-1H-pyrazol-4-yl)pyridin-2-yl)((4-(5-(2-fluoropropan-2-yl)-1,2,4-oxadiazol-3-yl)bicyclo[2.2.2]octan-1-yl)methyl)carbamate] came in with an EC50 of 84 nM.

With `CC(C)(C#N)Oc1ccc(-c2ccnc(N(CC34CCC(c5nc(C6CC6)no5)(CC3)CC4)C(=O)OC(C)(C)C(F)(F)F)c2)cc1` [Example 622, 1,1,1-trifluoro-2-methylpropan-2-yl(4-(4-((2-cyanopropan-2-yl)oxy)phenyl)pyridin-2-yl) ((4-(3-cyclopropyl-1,2,4-oxadiazol-5-yl)bicyclo[2.2.2]octan-1-yl)methyl)carbamate], the concentration giving a half-maximal response (EC50) turned out to be 34 nM.

Regarding `CC(C)(O)c1ccc(-c2cccc(N(CC34CCC(c5nc(C6CC6)no5)(CC3)CC4)C(=O)OC(C)(C)C(F)(F)F)c2)cc1` [Example 623, 1,1,1-trifluoro-2-methylpropan-2-yl((4-(3-cyclopropyl-1,2,4-oxadiazol-5-yl)bicyclo[2.2.2]octan-1-yl)methyl)(4′-(2-hydroxypropan-2-yl)-[1,1′-biphenyl]-3-yl)carbamate], it took 50 nM to reach a half-maximal effect (EC50).

Molecule `CC(C)(OC(=O)N(CC12CCC(c3noc(C4(F)CC4)n3)(CC1)CC2)c1cc(-c2ccc(OC(F)F)cc2)ccn1)C(F)(F)F` [Example 624, 1,1,1-trifluoro-2-methylpropan-2-yl(4-(4-(difluoromethoxy)phenyl)pyridin-2-yl)((4-(5-(1-fluorocyclopropyl)-1,2,4-oxadiazol-3-yl)bicyclo[2.2.2]octan-1-yl)methyl)carbamate] showed an EC50 of 50 nM.

With `CC(C)(C#N)Oc1ccc(-c2ccnc(N(CC34CCC(c5noc(C6(F)CC6)n5)(CC3)CC4)C(=O)OC(C)(C)C(F)(F)F)c2)cc1` [Example 625, 1,1,1-trifluoro-2-methylpropan-2-yl(4-(4-((2-cyanopropan-2-yl)oxy)phenyl)pyridin-2-yl) ((4-(5-(1-fluorocyclopropyl)-1,2,4-oxadiazol-3-yl)bicyclo[2.2.2]octan-1-yl)methyl) carbamate], the EC50 stood at 18 nM.

Molecule `CC(C)Oc1ccc(-c2ccnc(N(CC34CCC(c5noc(C(C)(F)F)n5)(CC3)CC4)C(=O)N3CCOCC3)c2)cc1` [Example 626, N-((4-(5-(1,1-difluoroethyl)-1,2,4-oxadiazol-3-yl)bicyclo[2.2.2]octan-1-yl)methyl)-N-(4-(4-isopropoxyphenyl)pyridin-2-yl)morpholine-4-carboxamide] came in with a half-maximal effective concentration (EC50) of 72 nM.

In turn, `CC(C)(F)c1nc(C23CCC(CN(C(=O)O[C@H]4C[C@](O)(C(F)(F)F)C4)c4cc(-c5ccc(OC(F)F)cc5)c(F)cn4)(CC2)CC3)no1` [Example 629, (cis)-3-hydroxy-3-(trifluoromethyl)cyclobutyl (4-(4-(difluoromethoxy)phenyl)-5-fluoropyridin-2-yl)((4-(5-(2-fluoropropan-2-yl)-1,2,4-oxadiazol-3-yl)bicyclo[2.2.2]octan-1-yl)methyl)carbamate] registered an EC50 of 99 nM.

The molecule `CC(C)(F)c1nc(C23CCC(CN(C(=O)OC4CC(F)(F)C4)c4cc(-c5ccc(OC(F)F)cc5)c(F)cn4)(CC2)CC3)no1` [Example 630, 3,3-difluorocyclobutyl(4-(4-(difluoromethoxy)phenyl)-5-fluoropyridin-2-yl)((4-(5-(2-fluoropropan-2-yl)-1,2,4-oxadiazol-3-yl)bicyclo[2.2.2]octan-1-yl)methyl)carbamate] came in with an EC50 of 160 nM.
